target: CREBBP (Homo sapiens (Human), UniProt Q92793); test: In vitro enzyme inhibition assay - CREBBP inhibition (AlphaScreen, biotinylated H4-tetraacetyl peptide); type: binding; details: Table 28; AlphaScreen, H4-tetraacetyl peptide
In short: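 His-tagged CREBBP expressed in E. coli (50 nM final) incubated with biotinylated H4K5/8/12/16(Ac) peptide (20 nM final) in HEPES pH 7.3 buffer, 0.4% DMSO, 20 min at room temperature.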

CREBBP, sequence (Q92793 1081-1197): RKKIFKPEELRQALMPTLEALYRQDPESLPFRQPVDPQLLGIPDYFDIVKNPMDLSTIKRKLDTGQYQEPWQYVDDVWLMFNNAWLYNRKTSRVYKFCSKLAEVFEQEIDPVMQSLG

SMILES | IC50
CC[C@H](C)S(=O)(=O)Nc1cc(-c2ccc(=O)n(C)c2)nc(Oc2c(F)cccc2OC)n1 [Example 209, Butane-(2S)-sulfonic acid [2-(2-fluoro-6-methoxy-phenoxy)-6-(1-methyl-6-oxo-1,6-dihydro-pyridin-3-yl)-pyrimidin-4-yl]-amide] | < 500 nM
CC[C@@H](C)S(=O)(=O)Nc1cc(-c2ccc(=O)n(C)c2)nc(Oc2c(F)cccc2C2CC2)n1 [Example 210, Butane-(2R)-sulfonic acid [2-(2-cyclopropyl-6-fluoro-phenoxy)-6-(1-methyl-6-oxo-1,6-dihydro-pyridin-3-yl)-pyrimidin-4-yl]-amide] | < 500 nM
CC[C@H](C)S(=O)(=O)Nc1cc(-c2ccc(=O)n(C)c2)nc(Oc2c(C)cccc2C2CC2)n1 [Example 211, Butane-(2S)-sulfonic acid [2-(2-cylcopropyl-6-methyl-phenoxy)-6-(1-methyl-6-oxo-1,6-dihydro-pyridin-3-yl)-pyrimidin-4-yl]-amide] | < 500 nM
CC[C@@H](C)S(=O)(=O)Nc1cc(-c2ccc(=O)n(C)c2)nc(Oc2c(C)ccc(F)c2F)n1 [Example 212, (2R)-Butane-2-sulfonic acid [2-(2,3-difluoro-6-methyl-phenoxy)-6-(1-methyl-6-oxo-1,6-dihydro-pyridin-3-yl)-pyrimidin-4-yl]-amide] | < 500 nM
CC[C@H](C)S(=O)(=O)Nc1cc(-c2ccc(=O)n(C)c2)nc(Oc2c(C)ccc(F)c2F)n1 [Example 213, (2S)-Butane-2-sulfonic acid [2-(2,3-difluoro-6-methyl-phenoxy)-6-(1-methyl-6-oxo-1,6-dihydro-pyridin-3-yl)-pyrimidin-4-yl]-amide] | < 500 nM
CCc1cccc(F)c1Oc1nc(NS(=O)(=O)[C@H](C)CC)cc(-c2ccc(=O)n(C)c2)n1 [Example 214, (2R)-Butane-2-sulfonic acid [2-(2-ethyl-6-fluoro-phenoxy)-6-(1-methyl-6-oxo-1,6-dihydro-pyridin-3-yl)-pyrimidin-4-yl]-amide] | < 500 nM
CCc1cccc(F)c1Oc1nc(NS(=O)(=O)[C@@H](C)CC)cc(-c2ccc(=O)n(C)c2)n1 [Example 215, (2S)-Butane-2-sulfonic acid [2-(2-ethyl-6-fluoro-phenoxy)-6-(1-methyl-6-oxo-1,6-dihydro-pyridin-3-yl)-pyrimidin-4-yl]-amide] | < 500 nM
CCC[C@H](C)S(=O)(=O)Nc1cc(-c2ccc(=O)n(C)c2)nc(Oc2c(C)cccc2F)n1 [Example 216, (2S)-Pentane-2-sulfonic acid [2-(2-fluoro-6-methyl-phenoxy)-6-(1-methyl-6-oxo-1,6-dihydro-pyridin-3-yl)-pyrimidin-4-yl]-amide] | < 500 nM
CCC[C@H](C)S(=O)(=O)Nc1cc(-c2ccc(=O)n(C)c2)nc(Oc2c(C)cccc2Cl)n1 [Example 217, (2S)-Pentane-2-sulfonic acid [2-(2-chloro-6-methyl-phenoxy)-6-(1-methyl-6-oxo-1,6-dihydro-pyridin-3-yl)-pyrimidin-4-yl]-amide] | < 500 nM
CCC[C@H](C)S(=O)(=O)Nc1cc(-c2ccc(=O)n(C)c2)nc(Oc2c(F)cccc2Cl)n1 [Example 218, (2S)-Pentane-2-sulfonic acid [2-(2-chloro-6-fluoro-phenoxy)-6-(1-methyl-6-oxo-1,6-dihydro-pyridin-3-yl)-pyrimidin-4-yl]-amide] | < 500 nM
CCC[C@@H](C)S(=O)(=O)Nc1cc(-c2ccc(=O)n(C)c2)nc(Oc2c(C)cccc2F)n1 [Example 219, (2R)-Pentane-2-sulfonic acid [2-(2-fluoro-6-methyl-phenoxy)-6-(1-methyl-6-oxo-1,6-dihydro-pyridin-3-yl)-pyrimidin-4-yl]-amide] | < 500 nM
CCC[C@@H](C)S(=O)(=O)Nc1cc(-c2ccc(=O)n(C)c2)nc(Oc2c(F)cccc2Cl)n1 [Example 220, (2R)-Pentane-2-sulfonic acid [2-(2-chloro-6-fluoro-phenoxy)-6-(1-methyl-6-oxo-1,6-dihydro-pyridin-3-yl)-pyrimidin-4-yl]-amide] | < 500 nM
CCC[C@@H](C)S(=O)(=O)Nc1cc(-c2ccc(=O)n(C)c2)nc(Oc2c(C)cccc2Cl)n1 [Example 221, (2R)-Pentane-2-sulfonic acid [2-(2-chloro-6-methyl-phenoxy)-6-(1-methyl-6-oxo-1,6-dihydro-pyridin-3-yl)-pyrimidin-4-yl]-amide] | < 500 nM
CC[C@H](C)S(=O)(=O)Nc1cc(-c2cc(C)c(=O)n(C)c2)nc(Oc2c(C)cccc2Cl)n1 [Example 222, (S)-N-(2-(2-chloro-6-methylphenoxy)-6-(1,5-dimethyl-6-oxo-1,6-dihydropyridin-3-yl)pyrimidin-4-yl)butane-2-sulfonamide] | < 500 nM
CCC[C@H](C)S(=O)(=O)Nc1cc(-c2cc(C)c(=O)n(C)c2)nc(Oc2c(C)cccc2Cl)n1 [Example 223, (S)-N-(2-(2-chloro-6-methylphenoxy)-6-(1,5-dimethyl-6-oxo-1,6-dihydropyridin-3-yl)pyrimidin-4-yl)pentane-2-sulfonamide] | < 500 nM
CC[C@H](C)S(=O)(=O)Nc1cc(-c2ccc(=O)n(C)c2)nc(Oc2c(F)ccc(C)c2Cl)n1 [Example 224, (2S)-Butane-2-sulfonic acid [2-(2-chloro-6-fluoro-3-methyl-phenoxy)-6-(1-methyl-6-oxo-1,6-dihydro-pyridin-3-yl)-pyrimidin-4 yl]-amide] | < 500 nM
CC[C@H](C)S(=O)(=O)Nc1cc(-c2ccc(=O)n(C)c2)nc(Oc2c(F)ccc(C)c2F)n1 [Example 225, (S)-N-(2-(2,6-difluoro-3-methylphenoxy)-6-(1-methyl-6-oxo-1,6-dihydropyridin-3-yl)pyrimidin-4-yl)butane-2-sulfonamide] | < 500 nM
CC[C@H](C)S(=O)(=O)Nc1cc(-c2ccc(=O)n(C)c2)nc(Oc2c(Cl)ccc(C)c2F)n1 [Example 226, (S)-Butane-2-sulfonic acid [2-(6-chloro-2-fluoro-3-methyl-phenoxy)-6-(1-methyl-6-oxo-1,6-dihydro-pyridin-3-yl)-pyrimidin-4-yl]-amide] | < 500 nM
CCC[C@H](C)S(=O)(=O)Nc1cc(-c2ccc(=O)n(C)c2)nc(Oc2c(Cl)ccc(C)c2F)n1 [Example 227, (2S)-Pentane-2-sulfonic acid [2-(6-chloro-2-fluoro-3-methyl-phenoxy)-6-(1-methyl-6-oxo-1,6-dihydro-pyridin-3-yl)-pyrimidin-4-yl]-amide] | < 500 nM
CCC[C@H](C)S(=O)(=O)Nc1cc(-c2ccc(=O)n(C)c2)nc(Oc2c(F)ccc(C)c2Cl)n1 [Example 228, (2S)-Pentane-2-sulfonic acid [2-(2-chloro-6-fluoro-3-methyl-phenoxy)-6-(1-methyl-6-oxo-1,6-dihydro-pyridin-3-yl)-pyrimidin-4-yl]-amide] | < 500 nM
CC[C@H](C)S(=O)(=O)Nc1cc(-c2ccc(=O)n(C)c2)nc(Oc2c(F)cccc2F)n1 [Example 229, (S)-N-(2-(2,6-difluorophenoxy)-6-(1-methyl-6-oxo-1,6-dihydropyridin-3-yl)pyrimidin-4-yl)butane-2-sulfonamide] | < 500 nM
CC[C@@H](C)S(=O)(=O)Nc1cc(-c2ccc(=O)n(C)c2)nc(Oc2c(F)cccc2F)n1 [Example 230, (R)-N-(2-(2,6-difluorophenoxy)-6-(1-methyl-6-oxo-1,6-dihydropyridin-3-yl)pyrimidin-4-yl)butane-2-sulfonamide] | < 500 nM

Further lines, results first:

IC50 | SMILES
< 500 nM | Cn1cc(-c2cc(NS(=O)(=O)CCC(F)(F)F)nc(Oc3c(F)cccc3Cl)n2)ccc1=O [Example 231, 3,3,3-Trifluoro-propane-1-sulfonic acid [2-(2-chloro-6-fluoro-phenoxy)-6-(1-methyl-6-oxo-1,6-dihydro-pyridin-3-yl)-pyrimidin-4-yl]-amide]
< 500 nM | Cn1cc(-c2cc(NS(=O)(=O)CCCC(F)(F)F)nc(Oc3c(F)cccc3Cl)n2)ccc1=O [Example 232, 4,4,4-Trifluoro-butane-1-sulfonic acid [2-(2-chloro-6-fluoro-phenoxy)-6-(1-methyl-6-oxo-1,6-dihydro-pyridin-3-yl)-pyrimidin-4-yl]-amide]
< 500 nM | CCCCS(=O)(=O)Nc1cc(-c2ccc(=O)n(C)c2)nc(Oc2c(F)cccc2OC)n1 [Example 233, Butane-1-sulfonic acid [2-(2-fluoro-6-methoxy-phenoxy)-6-(1-methyl-6-oxo-1,6-dihydro-pyridin-3-yl)-pyrimidin-4-yl]-amide]
< 500 nM | COc1cccc(F)c1Oc1nc(NS(=O)(=O)C(C)C)cc(-c2ccc(=O)n(C)c2)n1 [Example 234, Propane-2-sulfonic acid [2-(2-fluoro-6-methoxy-phenoxy)-6-(1-methyl-6-oxo-1,6-dihydro-pyridin-3-yl)-pyrimidin-4-yl]-amide]
< 500 nM | CCCS(=O)(=O)Nc1cc(-c2ccc(=O)n(C)c2)nc(Oc2c(F)cccc2OC)n1 [Example 235, Propane-1-sulfonic acid [2-(2-fluoro-6-methoxy-phenoxy)-6-(1-methyl-6-oxo-1,6-dihydro-pyridin-3-yl)-pyrimidin-4-yl]-amide]
< 500 nM | CCS(=O)(=O)Nc1cc(-c2ccc(=O)n(C)c2)nc(OC(C)C)n1 [Example 236, Ethanesulfonic acid [2-isopropoxy-6-(1-methyl-6-oxo-1,6-dihydro-pyridin-3-yl)-pyrimidin-4-yl]-amide]
< 500 nM | CCCS(=O)(=O)Nc1cc(-c2ccc(=O)n(C)c2)nc(OC(C)C)n1 [Example 237, Propane-1-sulfonic acid [2-isopropoxy-6-(1-methyl-6-oxo-1,6-dihydro-pyridin-3-yl)-pyrimidin-4-yl]-amide]
< 500 nM | CCS(=O)(=O)Nc1cc(-c2ccc(=O)n(C)c2)nc(Oc2c(F)cccc2C2CC2)n1 [Example 238, Ethanesulfonic acid [2-(2-cyclopropyl-6-fluoro-phenoxy)-6-(1-methyl-6-oxo-1,6-dihydro-pyridin-3-yl)-pyrimidin-4-yl]-amide]
< 500 nM | CCCS(=O)(=O)Nc1cc(-c2ccc(=O)n(C)c2)nc(Oc2c(F)cccc2C2CC2)n1 [Example 239, Propane-1-sulfonic acid [2-(2-cyclopropyl-6-fluoro-phenoxy)-6-(1-methyl-6-oxo-1,6-dihydro-pyridin-3-yl)-pyrimidin-4-yl]-amide]
